The subject of data set [1] is Human cytomegalovirus (HCMV). The data set is described as follows: Anti-HCMV plaque reduction assay in monolayers of MRCS cells (human embryonic lung). Type of data set: cell-based. The following applies: Human betaherpesvirus 5, 50% inhibitory concentration estimated from dose-response curve. Here is the method: Human cytomegalovirus (HCMV) is assayed in monolayers of MRCS cells (human embryonic lung) in multiwell trays. Activity of compounds is determined in the plaque reduction assay, in which a cell monolayer is infected with a suspension of HCMV. A range of concentrations of the compound to be tested (of known moiarity) is then incorporated into the carboxymethyl cellulose overlay. Plaque numbers of each concentration are expressed as percentage of the control and a dose-response curve is drawn. From this curve the 50% inhibitory concentration (IC50) is estimated.

The test system of data set [2] is human bon marrow progenitor cells (BFU-E). Nature of the data set: Toxicity in human bone marrow progenitor cells in vitro, BFU-E. The settings on record: 50% inhibition of bone marrow progenitor cells; three assays, marrow from three donors. Type of data set: cell-based. How it is done:
(§1) Compounds of formula (I) were tested fortoxicity in human bon marrow progenitor cells, in vitro, by the method of Dornsife, R. E. et at., 1991, Antimicrob. Agents Chemother., 35: 322-328. Three separate assays were performed using marrow from three different donors.

The subject of data set [3] is human bon marrow progenitor cells (CFU-GM). The data set is described as follows: Toxicity in human bone marrow progenitor cells in vitro, CFU-GM. It is filed as cell-based. Here is the method: as §1
In data set [4] the test system is herpes simplex virus type 1 (HSV-1). The settings on record: J. Med. Chem. 1987, 30, 746-749; Biochem. Pharmacol. 1990, 40, 1515-1522; especially the (+)-enantiomer; cited from earlier work.
Data set [5] concerns hepatitis B viral replication. The following applies: Proc. Natl. Acad. Sci. USA 1989, 86, 8541-8544; cited from earlier work.
[6] abbreviates: 50% inhibition of bone marrow progenitor cells, three assays, marrow from three donors.

Read-outs that look alike come from different tables or passages of the source. Some results are limits rather than exact numbers.

Usually IC50 stands for the midpoint of a concentration-inhibition curve. As for `Nc1nc(NCC2CC2)c2ncn([C@@H]3C[C@H](CO)[C@@H](O)C3)c2n1` (racemic) [Ex. 22, (±) (1S, 2R, 4R)-4-[2-Amino-6-(cyclopropylmethylamino)-9H-purin-9-yl]-2-(hydroxymethyl)-1-cyclopentanol], the half-inhibitory concentration (IC50) in data set [1] is 3100 nM. The “Cell Toxicity I50 BFU-E” value in data set [2] is given as >>50 μM. Further, the “Cell Toxicity I50 CFU-GM” value in data set [3] (setting [6]) came out at 34 ± 14 µM.

For orientation: melting point means the temperature of the solid-liquid transition. Turning to `Nc1nc(OC2CCCC2)c2ncn([C@@H]3C[C@H](CO)[C@@H](O)C3)c2n1` (racemic) [Example 28, (±)-(1S, 2R, 4R)-4-(2-Amino-6-(cyclopentyloxy)-9H-purin-9-yl)-2-(hydroxymethyl)-1-cyclopentanol], the melting point was in the range of 181 to 182 °C.

`Nc1nc2c(ncn2[C@@H]2C[C@H](CO)[C@@H](O)C2)c(=O)[nH]1` (relative stereo) [2′-CDG, (1R*, 3S*, 4R)-2-amino-1,9-dihydro-9-[3-hydroxy-4-hydroxymethyl)cyclopentyl]-6H-purine-6-one, reference compound]: the “activity against HSV-1” value in data set [4] is “active against herpes simplex virus type 1”. Also, the “inhibition of hepatitis B viral replication” value in data set [5] is “inhibits hepatitis B viral replication”. Also, the “Cell Toxicity I50 BFU-E” value in data set [2] stood at 4 ± 2 µM. Besides, the “Cell Toxicity I50 CFU-GM” value in data set [3] turned out to be 0.4 ± 0.3 µM.

`Cl.Cl.Nc1nc(NC2CC2)c2ncn([C@H]3C[C@@H](CO)[C@H](O)C3)c2n1` (stereo in doubt) came in with a melting point above 250 °C.

For the compound `Nc1nc(NC2CC2)c2ncn([C@@H]3C[C@H](CO)[C@@H](O)C3)c2n1` (stereo in doubt) [Ex. 23, (±)-(1S, 2R, 4R)-4-[2-Amino-6-(cyclopropylamino)-9H-purin-9-yl]-2-(hydroxymethyl)-1-cyclopentanol], the melting point lay in the range of 174 to 176 °C. Also, in data set [1], the IC50 was 2800 nM. For the same compound, the “Cell Toxicity I50 BFU-E” value in data set [2] turned out to be 55 ± 15 µM. For the same compound, the “Cell Toxicity I50 CFU-GM” value in data set [3] (setting [6]) stood at 14 ± 1 µM.

The values above are taken from patent publication US6392085B1, “Therapeutic nucleosides” (SmithKline Beecham Corporation, priority 1992, dated 2002).
